# Measurements: US10085449B2, “N-[1-((6-chloropyridin-3-yl)methyl)pyridin-2(1H)-ylidene]-2,2,2- trifluoroacetamide for control of agricultural/horticultural pests” (priority 2010, dated 2018)
# Where two headings read alike, the source gives them in different places.
# What was measured:
# Format in all cases: in vivo
# [1] = system: green rice leafhopper; test: Green rice leafhopper control test (foliar application); conditions: Nephotettix cincticeps, 96 h
# Protocol: (§1) Rice seedlings grown in pots were subjected to the foliar application of solutions of the inventive compounds at a predetermined concentration prepared to 50% acetone/water (containing 0.05% Tween 20). The treated seedlings were air dried, following which second-instar larvae were released onto the seedlings. The seedlings and larvae were then held in an incubation chamber at 25° C. (16-hour period of light, 8-hour dark period). Four days after released, the numbers of live and dead insects were counted, and the mortality was calculated from the following formula. This was a two-replication test. Mortality (%)=[number of dead insects/(number of live insects+number of dead insects)]×100
# [2] = system: small brown planthopper; test: whole plant or invertebrate; conditions: Laodelphax striatellus, in Triticum aestivum, 96 h
# How it was run: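 Roots of 48-h wheat seedlings took up compound in 10% acetone/water for 72 h, then ten second-instar larvae were released per seedling and held at 25 °C (16 h light/8 h dark). Mortality counted four days after release; two replications.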
# [3] = system: small brown planthopper; test: whole plant or invertebrate; conditions: Laodelphax striatellus, foliar
# Protocol: as §1, with “Three” for “Four”
# [4] = system: rice leaf bug; test: whole plant or invertebrate; conditions: foliar, 72 h
# How it was run: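 Four-day wheat seedling shoots dipped 30 s in compound solution (50% acetone/water, 0.05% Tween 20), air-dried, then infested with two second-instar larvae per glass cylinder at 25 °C, 16 h light/8 h dark. Mortality (%) counted after 3 days.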
# [5] = system: small brown planthopper; test: whole plant or invertebrate; conditions: Laodelphax striatellus, 72 h
# How it was run: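 Rice seedlings in pots soil-drenched with compound at a set concentration in 10% acetone/water; ten second-instar larvae released per seedling 3 days later. Held at 25° C. (16 h light/8 h dark) and scored live/dead 3 days after release. Mortality (%) = dead/(live+dead)×100; two replications.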
# [6] = system: greenhouse whitefly; test: whole plant or invertebrate; conditions: Cucumis sativus, foliar, 336 h
# Protocol: Adult greenhouse whiteflies were released onto cucumber plants grown in pots, and allowed to laid eggs overnight. One day after the start of oviposition, the adults were removed, and the plants and eggs were held in an incubation chamber at 25° C. (16-hour period of light, 8-hour dark period). Three days after the end of oviposition, leaf discs 2.0 cm in diameter were cut from the cucumber plants and, after confirming oviposition thereon, the leaf discs were sprayed with solutions of the inventive compounds at a predetermined concentration prepared to 50% acetone/water (containing 0.05% Tween 20). After spraying, the treated leaf discs were held in an incubation chamber at 25° C. (16-hour period of light, 8-hour dark period). Fourteen days after spraying, the numbers of live and dead insects were counted, and the mortality was calculated from the following formula. This was a two-replication test. Mortality (%)=[(number of oviposited eggs−number of live insects)/number of oviposited eggs]×100
# [7] = system: green peach aphid; test: Green peach aphid control test (foliar application); conditions: Myzus persicae, in Brassica oleracea, 72 h
# Source text: Leaf discs 2.8 cm in diameter were cut from cabbage plants grown in pots, and four adult aphids were released onto each disc. One day later, the adults were removed, and the number of first-instar larvae that had been deposited on each leaf disc was adjusted to 10. Next, the leaf discs parasitized by these first instar larvae were sprayed with solutions of the inventive compounds at a predetermined concentration prepared to 50% acetone/water (containing 0.05% Tween 20). The treated leaf discs were air dried, following which covers were placed over the Petri dishes and the leaf discs and larvae were held in an incubation chamber at 25° C. (16-hour period of light, 8-hour dark period). Three days after released, the numbers of live and dead insects were counted, and the mortality was calculated from the following formula. This was a two-replication test. Mortality (%)=[number of dead insects/(number of live insects+number of dead insects)]×100
# [8] = system: western flower thrips; test: whole plant or invertebrate; conditions: Frankliniella occidentalis, foliar
# How it was run: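 Bean leaf discs sprayed with compound in 50% acetone/water with 0.05% Tween 20, air dried, then infested with first-instar larvae. Held at 25° C under 16 h light/8 h dark; live and dead counted after 3 days to give % mortality, two replicates.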
# [9] = read-out: Insecticidal effects (mortality), small brown planthopper second-instar larvae
# [10] = soil, read-out: Insecticidal effects (mortality), small brown planthopper second-instar larvae
# [11] = read-out: Insecticidal effects (mortality), western flower thrips first-instar larvae
smiles,measurement,setting,value
"O=C(N=c1ccccn1Cc1ccc(Cl)nc1)C(F)(F)F [Compound 212, N-[1-((6-chloropyridin-3-yl)methyl)pyridin-2(1H)-ylidene]-2,2,2-trifluoroacetamide]",mortality at 100 ppm,[1],≥ 80%
same,mortality at 20 µg/seedling,[2],≥ 80%
same,mortality at 0.0078 mg/seedling,[2]; [9],50%
same,mortality at 0.016 mg/seedling,[2]; [9],50%
same,mortality at 0.031 mg/seedling,[2]; [9],100%
same,mortality at 0.063 mg/seedling,[2]; [9],100%
same,mortality at 0.125 mg/seedling,[2]; [9],100%
same,mortality at 0.25 mg/seedling,[2]; [9],100%
same,mortality at 0.5 mg/seedling,[2]; [9],100%
same,mortality at 2 mg/seedling,[2]; [9],100%
same,mortality at 20 mg/seedling,[2]; [9],100%
same,mortality at 0.313 ppm,[3]; [9],75%
same,mortality at 1.25 ppm,[3]; [9],100%
same,mortality at 5 ppm,[3]; [9],100%
same,mortality at 100 ppm,"[3]; in Oryza sativa, 72 h",≥ 80%
same,mortality at 50 ppm,[4],≥ 80%
same,pest or weed control at 0.002 mg/pot,"[5]; rice soil drenching, 0.002 mg/pot (Table 13), read-out: Small brown planthopper (rice soil drenching), effect",85%
same,pest or weed control at 0.005 mg/pot,"[5]; rice soil drenching, 0.005 mg/pot (Table 13), read-out: Small brown planthopper (rice soil drenching), effect",95%
same,pest or weed control at 0.01 mg/pot,"[5]; rice soil drenching, 0.01 mg/pot (Table 13), read-out: Small brown planthopper (rice soil drenching), effect",100%
same,pest or weed control at 0.05 mg/pot,"[5]; rice soil drenching, 0.05 mg/pot (Table 13), read-out: Small brown planthopper (rice soil drenching), effect",100%
same,mortality at 0.005 mg/seedling,[5]; soil,95%
same,mortality at 0.05 mg/seedling,[5]; soil,≥ 80%
same,mortality at 0.002 mg/pot,[5]; [10],85%
same,mortality at 0.005 mg/pot,[5]; [10],95%
same,mortality at 0.01 mg/pot,[5]; [10],100%
same,mortality at 0.05 mg/pot,[5]; [10],100%
same,mortality at 100 ppm,[6],≥ 80%
same,mortality at 100 ppm,[7],≥ 80%
same,mortality at 100 ppm,[8]; 72 h,≥ 80%
same,mortality at 500 ppm,[8]; 72 h,≥ 80%
same,mortality at 20 ppm,[8]; [11],65%
same,mortality at 100 ppm,[8]; [11],100%
same,mortality at 500 ppm,[8]; [11],100%
